21 compounds from patent US20260209208A1, “PHENYL-PYRAZOLE CARBOXAMIDE COMPOUNDS” (Acrivon Therapeutics, Inc., priority 2022, published 2026) can be followed below.

Test [1] deals with T1, recombinant human PMYT-1 (Myt1 kinase) (Homo sapiens, UniProt Q99640).
T1 construct: full length PMYT-1 was expressed by baculovirus in insect cells using a N-terminal GST tag; purchased Invitrogen A30984; host or cells: insect cells (baculovirus)
T1 sequence (Q99640 1-499): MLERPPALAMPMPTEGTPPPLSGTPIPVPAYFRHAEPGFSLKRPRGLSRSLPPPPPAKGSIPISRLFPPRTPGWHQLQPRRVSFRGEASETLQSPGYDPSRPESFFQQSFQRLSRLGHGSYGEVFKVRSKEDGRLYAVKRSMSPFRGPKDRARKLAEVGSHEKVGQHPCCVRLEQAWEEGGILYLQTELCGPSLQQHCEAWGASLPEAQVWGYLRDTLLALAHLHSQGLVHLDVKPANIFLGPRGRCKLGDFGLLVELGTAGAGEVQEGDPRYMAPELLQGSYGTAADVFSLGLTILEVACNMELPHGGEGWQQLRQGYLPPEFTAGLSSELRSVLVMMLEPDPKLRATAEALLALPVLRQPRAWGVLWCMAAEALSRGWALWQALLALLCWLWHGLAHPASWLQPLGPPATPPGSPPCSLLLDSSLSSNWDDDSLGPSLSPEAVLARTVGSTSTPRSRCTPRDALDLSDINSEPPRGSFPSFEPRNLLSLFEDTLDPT
In words: LanthaScreen Europium (Eu) Kinase Binding Assay for Myt1 kinase. The note with it: TR-FRET tracer 178 displacement, GST-tagged full length PMYT-1, 60 min, room temperature; mean IC50; read-out: LANTHA Kinase Binding for PMyt1. The source says:
We used a LanthaScreen Europium (Eu) Kinase Binding Assay to determine the binding of provided compounds to Myt1 kinase. The assay utilizes an Alexa Fluor 647-labeled ATP competitive kinase tracer that binds to the ATP binding site of a GST-tagged Myt1 kinase, while a europium (Eu) labeled antibody binds to the GST tag. The proximity of fluorescently labeled kinase tracer and europium (Eu) donor fluorophore antibody leads to fluorescence resonance energy transfer (FRET) to the fluorescence label (acceptor) upon excitation of the Eu (donor). Displacement of tracer from the ATP-binding site by a test compound disturbs the proximity between both labels thus lowering the FRET.
This time resolved-FRET binding assay was performed in white 384-well low volume plates (Greiner, cat #784075), at room temperature in kinase buffer A (KBA; Invitrogen cat # PV3189), consisting of 50 mM HEPES-NaOH (pH 7.5), 0.01% Brij-35, 10 mM MgCl2, and 1 mM EGTA. 5 μl of compound (diluted in reaction buffer, to 1% DMSO) were added to various wells in the plate, followed by 5 μl each of recombinant human PMYT-1 (full length PMYT-1 was expressed by baculovirus in insect cells using a N-terminal GST tag (MW: 80.8 kDa) (Invitrogen cat #A30984) and LanthaScreen Eu-anti-GST antibody (Invitrogen, cat #PV5594). After this, 5 μl of kinase tracer 178 (Invitrogen, cat #PV5593) was added to the plate and the plate was incubated for 60 minutes at room temperature. The final assay conditions in each well were: 3 nM tracer 178, 2.5 nM PMYT-1 and 1 nM Eu-labeled antibody in total assay volume of 15 μl. An Envision 2104 (Perkin-Elmer) Plate Reader with the following time-resolve fluorescence setting was used for performing LanthaScreen kinase binding assay. • Excitation 320 nm (30 nm bandpass) • Kinase Tracer Emission 665 nm (10 nm bandpass) • LanthaScreen Eu-anti-Tag Antibody Emission 615 nm (10 nm bandpass) • Dichroic Mirror Instrument dependent • Delay Time 100 μs • Integration Time 200 μs
To calculate the emission ratio, the acceptor/tracer emission ([…]) was divided by the antibody/donor emission ([…]) and the average of duplicate measurement was used for calculations. Data plotting, analysis of binding, and curve fitting was done using Excel add-in XLfit version 5.5.0.5 (IDBS, Guildford, United Kingdom).
(Time-resolved FRET reads energy transfer from a long-lived donor to a nearby acceptor.)

A further test concerns DAOY cells. The test is described as follows: Cell Titer Glo viability assay. Format: cell-based. The note with it: Homo sapiens, 144 hours, Cell Titer Glo 2.0. As to the method: (§1) DAOY medulloblastoma cell line (ATCC) was cultured in Minimum Essential Medium Eagle supplemented with 10% fetal calf serum (Sigma), 1% Penicillin-Streptomycin and 10 mM HEPES buffer (HyClone). Cell cultures were kept in a humidified incubator at 37° C. and 5% CO2. Cells were routinely tested for Mycoplasma contamination.
DAOY cells were seeded at a density of 250 cells per well in tissue culture 384 well plates (Corning Costar). After overnight incubation, cells were incubated with test compounds at concentrations ranging from 0.17 to 10,000 nM. Viability compared to untreated control was assessed at 144 hours using Cell Titer Glo® 2.0 Viability Assay (Promega).
(In general: In ATP-based viability assays light output follows the ATP content of the culture.)

The next test concerns the target T2, Myt1 Kinase (Homo sapiens, UniProt Q99640).
T2 construct: endogenous in cells; host or cells: DAOY medulloblastoma cells (ATCC)
T2 sequence (Q99640 1-499): T1 sequence (Q99640 1-499)
The test is described as follows: AlphaLISA SureFire Ultra Human Phospho-CDK1 (Thr14) target engagement assay in DAOY cells. The note with it: 4 h incubation, Cdk1 phosphorylated on threonine 14, read-out: TE Myt1 Kinase (AlphaLISA). Format: cell-based. The method, then:
The following cellular assay was used to determine the extent to which the compounds disclosed herein inhibit phosphorylation of CDK1 at Thr 14.
as §1
For target engagement assessment, quantification of Cdk1 phosphorylated on threonine 14 was detected using the AlphaLISA® SureFire® Ultra™ Human Phospho-CDK1 (Thr14) assay (Perkin Elmer). DAOY cells were seeded into tissue culture 96-well plates (VWR) to a density of 10,000 cells per well. Twenty-four hours post-seeding cells were incubated for 4 h with test compounds at concentrations ranging from 7 to 5000 nM. Cells were washed with PBS and lysed in 50 μl AlphaLISA® lysis buffer before freezing at −80° C. Ten μl of the lysate was transferred to 384 well plates and incubated with AlphaLISA® donor and acceptor beads according to the manufacturer's instructions. Dose response curves and EC50 values were calculated and visualized using GraphPad Prism version 9.
(Alpha assays give light when donor and acceptor beads are brought close together.)

On to `Cc1ccc(O)c(C)c1-n1nc(-c2ccco2)c(C(N)=O)c1N` (single isomer, unassigned) [Compound 104, 5-amino-3-(furan-2-yl)-1-(3-hydroxy-2,6-dimethylphenyl)-1H-pyrazole-4-carboxamide], for which the IC50 in test [1] is not above 10 nM. Also, the EC50 in the test with DAOY cells was 500 to 1000 nM; at Myt1 Kinase, not above 250 nM.

Take `Cc1ccc(O)c(C)c1-n1nc(-c2cc(Br)co2)c(C(N)=O)c1N` (single isomer, unassigned) [Compound 106, 5-amino-3-(4-bromofuran-2-yl)-1-(3-hydroxy-2,6-dimethylphenyl)-1H-pyrazole-4-carboxamide]: the IC50 in test [1] was not above 10 nM. Also, the EC50 is not above 500 nM with DAOY cells and not above 250 nM on Myt1 Kinase.

For `Cc1ccc(O)c(C)c1-n1nc(-c2cc3ccccc3o2)c(C(N)=O)c1N` (single isomer, unassigned) [Compound 107, 5-amino-3-(benzofuran-2-yl)-1-(3-hydroxy-2,6-dimethylphenyl)-1H-pyrazole-4-carboxamide], the IC50 in test [1] was not above 10 nM. The EC50 with DAOY cells was not above 500 nM; at Myt1 Kinase, not above 250 nM.

Consider `Cc1ccc(O)c(C)c1-n1nc(-c2ccccc2)c(C(N)=O)c1N` [Compound 9, 5-amino-1-(3-hydroxy-2,6-dimethylphenyl)-3-phenyl-1H-pyrazole-4-carboxamide; trifluoroacetic acid], for which the IC50 in test [1] was in the range of 10 to 100 nM. Moreover, the EC50 in the test with DAOY cells was more than 1000 nM; on Myt1 Kinase, not above 250 nM.

For `Cc1ccc(O)c(C)c1-n1nc(-c2ccccn2)c(C(N)=O)c1N` [Compound 35], in test [1], the IC50 is not above 10 nM. The EC50 in the test on DAOY cells is more than 1000 nM; on Myt1 Kinase, not above 250 nM.

`Cc1ccc(O)c(C)c1-n1nc(-c2cc3ccccc3o2)c(C(N)=O)c1N` [Compound 72, 5-amino-3-(1-benzofuran-2-yl)-1-(3-hydroxy-2,6-xylyl)-4-pyrazolecarboxamide]: the IC50 in test [1] was not above 10 nM. Further, the figures for the EC50 in the test with DAOY cells and on Myt1 Kinase were not above 500 nM and not above 250 nM, respectively.

For `Cc1ccc(O)c(C)c1-n1nc(-c2ccc(Br)o2)c(C(N)=O)c1N` [Compound 73, 5-amino-3-(5-bromo-2-furyl)-1-(3-hydroxy-2,6-xylyl)-4-pyrazolecarboxamide], in test [1], the IC50 was not above 10 nM. In addition, the EC50 in the test on DAOY cells was not above 500 nM; at Myt1 Kinase, not above 250 nM.

Regarding `Cc1ccc(O)c(C)c1-n1nc(-c2cc(Br)co2)c(C(N)=O)c1N` [Compound 79, 5-amino-3-(4-bromo-2-furyl)-1-(3-hydroxy-2,6-xylyl)-4-pyrazolecarboxamide], the IC50 in test [1] is not above 10 nM. For the same compound, the EC50 is not above 500 nM in the test with DAOY cells and not above 250 nM at Myt1 Kinase.

For `Cc1ccc(O)c(C)c1-n1nc(-c2ccc(Cl)o2)c(C(N)=O)c1N` [Compound 80, 5-amino-3-(5-chloro-2-furyl)-1-(3-hydroxy-2,6-xylyl)-4-pyrazolecarboxamide], in test [1], the IC50 was not above 10 nM. Also, the EC50 was more than 1000 nM in the test on DAOY cells and not above 250 nM at Myt1 Kinase.

As for `Cc1ccc(-c2nn(-c3c(C)ccc(O)c3C)c(N)c2C(N)=O)o1` [Compound 81, 5-amino-1-(3-hydroxy-2,6-xylyl)-3-(5-methyl-2-furyl)-4-pyrazolecarboxamide], the IC50 in test [1] was not above 10 nM. In addition, the EC50 in the test with DAOY cells is 500 to 1000 nM; at Myt1 Kinase, not above 250 nM.

With `Cc1ccc(O)c(C)c1-n1nc(-c2coc3ccccc23)c(C(N)=O)c1N` [Compound 82, 5-amino-3-(1-benzofuran-3-yl)-1-(3-hydroxy-2,6-xylyl)-4-pyrazolecarboxamide], the IC50 in test [1] is not above 10 nM. Also, the EC50 with DAOY cells was more than 1000 nM; on Myt1 Kinase, 500 to 1000 nM.

In the case of `Cc1ccc(O)c(C)c1-n1nc(-c2ccc(-c3cccnc3)o2)c(C(N)=O)c1N` [Compound 86, 5-amino-1-(3-hydroxy-2,6-xylyl)-3-[5-(3-pyridyl)-2-furyl]-4-pyrazolecarboxamide], in test [1], the IC50 was not above 10 nM. Moreover, the EC50 is 500 to 1000 nM with DAOY cells and not above 250 nM at Myt1 Kinase.

For `Cc1ccc(O)c(C)c1-n1nc(-c2ccc(-c3ccccc3)o2)c(C(N)=O)c1N` [Compound 87, 5-Amino-1-(3-hydroxy-2,6-xylyl)-3-(5-phenyl-2-furyl)-4-pyrazolecarboxamide], the IC50 in test [1] was not above 10 nM. For the same compound, the EC50 with DAOY cells is not above 500 nM; on Myt1 Kinase it was not above 250 nM.

As to `Cc1cc(-c2nn(-c3c(C)ccc(O)c3C)c(N)c2C(N)=O)oc1C` [Compound 89, 5-amino-3-(4,5-dimethyl-2-furyl)-1-(3-hydroxy-2,6-xylyl)-4-pyrazolecarboxamide], in test [1], the IC50 was not above 10 nM. Further, the EC50 on Myt1 Kinase was 250 to 500 nM.

For `NC(=O)c1c(-c2ccco2)nn(-c2c(Cl)ccc(O)c2Cl)c1N` [Compound 91, 5-amino-1-(2,6-dichloro-3-hydroxyphenyl)-3-(2-furyl)-4-pyrazolecarboxamide], the IC50 in test [1] lay in the range of 10 to 100 nM. For the same compound, the EC50 on Myt1 Kinase was more than 1000 nM.

As to `NC(=O)c1c(-c2cc(Br)co2)nn(-c2c(Cl)ccc(O)c2Cl)c1N` [Compound 92, 5-amino-3-(4-bromo-2-furyl)-1-(2,6-dichloro-3-hydroxyphenyl)-4-pyrazolecarboxamide], the IC50 in test [1] was 10 to 100 nM. The EC50 on Myt1 Kinase lay in the range of 500 to 1000 nM.

Turning to `NC(=O)c1c(-c2cc3ccccc3o2)nn(-c2c(Cl)ccc(O)c2Cl)c1N` [Compound 93, 5-amino-3-(1-benzofuran-2-yl)-1-(2,6-dichloro-3-hydroxyphenyl)-4-pyrazolecarboxamide], the IC50 in test [1] fell in the range of 10 to 100 nM. Moreover, the EC50 on Myt1 Kinase lay within 500 to 1000 nM.

Turning to `Cc1ccc(O)c(C)c1-n1nc(-c2ccc(-c3ccccn3)o2)c(C(N)=O)c1N` [Compound 100, 5-amino-1-(3-hydroxy-2,6-xylyl)-3-[5-(2-pyridyl)-2-furyl]-4-pyrazolecarboxamide], the EC50 is more than 1000 nM with DAOY cells and 250 to 500 nM on Myt1 Kinase.

With `Cc1ccc(O)c(C)c1-n1nc(-c2ccsc2)c(C(N)=O)c1N` [Compound 120], in test [1], the IC50 was not above 10 nM. Further, on Myt1 Kinase, the EC50 lay within 250 to 500 nM.

In the case of `Cc1ccc(O)c(C)c1-n1nc(-c2nccn2C)c(C(N)=O)c1N` [Compound 124], the IC50 in test [1] lay within 10 to 100 nM. The EC50 at Myt1 Kinase was more than 1000 nM.

With `Cc1ccc(O)c(C)c1-n1nc(-c2ncc[nH]2)c(C(N)=O)c1N` [Compound 125], the IC50 in test [1] was not above 10 nM. Besides, the EC50 at Myt1 Kinase lay within 500 to 1000 nM.
